Test results as given in US8329745B2, “Small molecule inhibitors of ghrelin O-acyltransferase” (Board of Regents, The University of Texas System, priority 2008, dated 2012).
Blank lines part the entries; values can stand above or below the compound they belong to. Where a SMILES comes first, the peptide text is derived from it. [ ]: non-standard residue; d: D form. The star is where a group is joined. Octanoyl = CCCCCCCC(=O)*; Dap = NC[C@H](N)C(=O)O

How the values were obtained:
mouse GOAT = target: T1, mouse GOAT (Mus musculus, UniProt P0C7A3); test: In vitro octanoylation assay: [3H]octanoyl transfer from octanoyl CoA to proghrelin-His8 by membranes of Sf9 cells expressing GOAT; assay type: biochemical; conditions: for inhibition of GOAT activity (qualitative): all concentrations tested / concentration not stated; for GOAT inhibitory activity compared with PH1147 / GOAT inhibitory activity/potency compared with BK1114: concentration not given; for GOAT inhibition in vitro compared with PH1147: 100 μM concentration; for dose response inhibition of GOAT activity in vitro / inhibition of GOAT activity at high concentration / IC50: Sf9 membranes; for dose response inhibition of GOAT activity in vitro: mouse His10-GOAT, 3% DMSO; for inhibition of GOAT activity at high concentration: 500 μM; for inhibition of GOAT activity at high concentration / IC50: mouse GOAT; for IC50: read-out: IC50 for GOAT inhibition in vitro
T1 construct: made in house; host or cells: Sf9 insect cells (baculovirus); crude membrane fraction used
T1 sequence (P0C7A3 1-435): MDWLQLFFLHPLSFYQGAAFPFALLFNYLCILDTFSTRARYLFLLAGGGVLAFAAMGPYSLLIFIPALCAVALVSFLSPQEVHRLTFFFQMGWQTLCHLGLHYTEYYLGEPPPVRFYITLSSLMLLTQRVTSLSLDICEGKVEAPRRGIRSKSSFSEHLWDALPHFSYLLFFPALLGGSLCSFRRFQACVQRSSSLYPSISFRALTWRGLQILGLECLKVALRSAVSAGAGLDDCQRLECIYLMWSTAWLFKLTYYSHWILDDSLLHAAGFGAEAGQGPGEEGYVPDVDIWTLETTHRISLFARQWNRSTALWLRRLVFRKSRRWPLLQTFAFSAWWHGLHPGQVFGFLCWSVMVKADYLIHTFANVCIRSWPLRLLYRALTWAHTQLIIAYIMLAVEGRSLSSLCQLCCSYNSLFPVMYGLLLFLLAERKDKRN
Procedure: The assay we used is described in copending U.S. Ser No. 12/167,917, filed: Jul. 3, 2008. For baculoviral infection of insect cells, mouse GOAT cDNA was inserted into pFastBac HT-A (His10-tag) (Invitrogen), and baculovirus was generated. Sf9 insect cells were cultured, set up on day 0 at a density of 5×10^5 cells/ml, and infected on day 1 with baculovirus encoding His 10-GOAT at a density of 1×10^6 cells/ml. Cells were harvested 48 h post-infection and washed once with phosphate-buffered saline.
Each pellet of Sf9 cells (obtained from 1 liter of cell culture) was disrupted with a Dounce homogenizer (40 strokes) on ice in 50 ml of buffer containing 50 mM Tris-Cl (pH 7.0), 150 mM NaCl, 1 mM sodium EDTA, 1 mM dithiothreitol, 100 μM bis(4-nitrophenyl) phosphate, 2.5 μg/ml aprotinin, 20 μg/ml phenylmethylsulfonyl fluoride, 10 μg/ml leupeptin, and 10 μg/ml pepstatin A. After an initial centrifugation at 3,000 g for 5 min at 4° C., the supernatant was further centrifuged at 100,000 g for 30 min at 4° C. to obtain a membrane fraction, which was stored at −80° C. until the time of assay. Just prior to assay, the membranes were suspended in 50 mM HEPES-NaOH (pH 7.0) and then passed through a 22-gauge needle 10 times. After centrifugation at 1,000 g for 1 min to remove aggregated materials, the supernatant (hereafter referred as membranes) was used for assays.
Unless otherwise stated, the standard assay mixture contained 50 mM HEPES-NaOH (pH 7.0), 50 μM palmitoyl CoA or myristyl ether CoA, 50 μg membrane protein, 5 μg recombinant wild type or mutant versions of proghrelin-His8 and 1 μM [^3H]octanoyl CoA (11 dpm/fmol) in a final volume of 50 μl. […] The columns were washed at room temperature with 1 ml of buffer A followed by 3 ml of buffer A containing 25 mM imidazole. The His-tagged proghrelin was then eluted with 1 ml of buffer A containing 250 mM imidazole. Radioactivity present in the 250 mM-imidazole eluate was quantified by liquid scintillation counting.
Compounds PH1147-1152 were screened for GOAT inhibition in vitro using membrane fractions prepared from Sf9 insect cells infected with baculovirus encoding mouse GOAT. The assay (described in U.S. Ser. No. 12/167,917) measures the extent of specific acyl transfer from tritiated octanoyl CoA to recombinant His-tagged proghrelin. […] PH1147 was the simplest molecule in the set and lacked motifs present in the more complex analogs intended to be Ser2 and/or Phe4 mimetics.
(§1) Inhibition of GOAT activity by [Dap^3]octanoyl-ghrelin (1-5)-NH2 peptide and BK1114. Membranes from Sf9 cells infected with baculovirus encoding mouse His10-GOAT were prepared as previously described (Yang J, Zhao T J, Goldstein J L, Brown M S. 2008 PNAS, 105: 10750-10755). Each 50-μl reaction mixture contained 50 μg of membrane protein, 5 μg of proghrelin-His8, 50 μM palmitoyl CoA, 1 μM http[^3H]octanoyl CoA (11 dpm/fmol), and the experimental concentrations of peptide or compound in a final concentration of 3% (vol/vol) DMSO. Control values were established which represent the amount of [3H]octanoyl proghrelin formed in the absence of compound.
as §1, with “the synthetic compounds, BK1114, BK1176, BK1177” for “[Dap^3]octanoyl-ghrelin (1-5)-NH2 peptide”, “BK1183.” for “BK1114.”, “et al., 2008, supra).” for “J, Zhao T J, Goldstein J L, Brown M S. 2008 PNAS, 105: 10750-10755).”, “[^3H]octanoyl” for “http[^3H]octanoyl”, “the” for “peptide or”

GOAT = target: T2, GOAT (Mus musculus, UniProt P0C7A3); test: Inhibition of GOAT activity in intact INS-1 cells co-expressing preproghrelin and GOAT (anti-ghrelin immunoblot); assay type: cell-based, Rat; conditions: 5 to 10 to 20 to 50 uM inhibitor, 24 h
T2 construct: expressed in transfected cells; host or cells: rat INS-1 cells stably co-expressing preproghrelin (pCMV-preproghrelin) and GOAT-T7 (pEF-GOAT-T7)
T2 sequence (P0C7A3 1-435): T1 sequence (P0C7A3 1-435)
Procedure: A stably transfected INS-1 cell line co-expressing preproghrelin and GOAT was established as described below. On day 0, cells were set up at a density of 1.5×10^6/100-mm dish in medium A (RPMI-1640 medium supplemented with 10 mM HEPES, 50 μM β-mercaptoethanol, 100 U/ml penicillin, and 100 μg/ml streptomycin) containing 10% (v/v) FCS. On day 2, fresh medium was added. On day 4, the cells received a direct addition of the indicated concentration of BK1114 delivered in DMSO. The final concentration of DMSO in each dish was 0.5%. 24 h after treatment, two dishes of cells from each condition were harvested and pooled, after which peptides were extracted from the cells, fractioned on reverse-phase chromatography, and subjected to immunoblot analysis with a 1:1000 dilution of rabbit anti-ghrelin antibody as previously described (Yang J, Brown M S, Liang G, Grishin N V, Goldstein J L (2008) Identification of the acyltransferase that octanoylates ghrelin, an appetite-stimulating peptide hormone. Cell 132:387-39). Films were exposed for 1 min.
Stably transfected cell line co-expressing preproghrelin and GOAT. Rat INS-1 cells were grown in monolayer at 37° C. in 8.8% CO2 as previously described (Id.). […] Expression of proghrelin and ghrelin was assessed by immunoblot analysis. […] Expression of GOAT-T7 was assessed by immunoblot analysis.

GOAT inhibitory activity/potency compared with BK1114 (mouse GOAT): does not perform as well as BK1114
Compound: CCCCCCCC(=O)NC[C@H](NC(=O)OCc1ccccc1)C(=O)OC [LN1111622]

inhibition of GOAT activity at high concentration (mouse GOAT): greatest inhibition | IC50 (mouse GOAT): ~90 µM
Compound: CCCCCCCC(O)/C=C/[C@H](NC(=O)OCc1ccccc1)C(=O)OC (stereo partly shown) [PH1147]

inhibition of GOAT activity at high concentration (mouse GOAT): inhibited GOAT activity
Compound: CCCCCCCC(O)CC[C@H](NC(=O)CC(C)(C)O)C(=O)OC (stereo partly shown) [PH1149]

inhibition of GOAT activity at high concentration (mouse GOAT): inhibited GOAT activity
Compound: CCCCCCCC(O)CC[C@H](NC(=O)C(C)(C)CO)C(=O)OC (stereo partly shown) [PH1150]

GOAT inhibition in vitro compared with PH1147 (mouse GOAT): comparably to PH1147 | GOAT inhibition at higher concentrations (mouse GOAT; concentrations higher than 100 μM, compared with PH1147): performed more poorly
Compound: CCCCCCCC(=O)CC[C@H](NC(=O)OCc1ccccc1)C(=O)OC [PH1154a]

GOAT inhibitory activity/potency compared with BK1114 (mouse GOAT): do not improve activity
Compound: CCCCCCCC(C)(O)/C=C/[C@H](NC(=O)OCc1ccccc1)C(=O)NC(C)C (stereo partly shown) [PH1176a]

GOAT inhibitory activity/potency compared with BK1114 (mouse GOAT): do not improve activity
Compound: CCCCCCCC(C)(O)C/C=C(/NC(=O)OCc1ccccc1)C(=O)NC(C)C (stereo not shown) [PH1176b]

Further lines, the compound ahead of its results:

Compound: CCC(C)(O)/C=C/[C@H](NC(=O)OCc1ccccc1)C(=O)OC (stereo partly shown) [BK1095]
inhibition of GOAT activity (qualitative) (mouse GOAT): little inhibition

Compound: CCCCCCCC(O)/C=C/[C@H](NC(=O)C(F)(F)F)C(=O)OC (stereo partly shown) [BK1112]
GOAT inhibitory activity compared with PH1147 (mouse GOAT): not helpful

Compound: CCCCCCCC(C)(O)/C=C/C(NC(=O)OCc1ccccc1)C(=O)OC (stereo not shown) [BK1114]
GOAT inhibition in vitro compared with PH1147 (mouse GOAT): roughly twice as efficacious as PH1147 | dose response inhibition of GOAT activity in vitro (mouse GOAT): dose response inhibition | dose response inhibition of GOAT activity in intact cells (GOAT): dose inhibition response

Compound: CCCCCCCC(C)(O)/C=C/[C@H](NC(=O)OCc1ccccc1)C(=O)N[C@@H](Cc1ccccc1)C(=O)N[C@@H](CC(C)C)C(N)=O (stereo partly shown) [BK1129]
GOAT inhibitory activity/potency compared with BK1114 (mouse GOAT): Neither was as effective as BK1114

Compound: CCCCCCCC(C)(O)/C=C/[C@H](NC(=O)C(C)(C)CO)C(=O)OC (stereo partly shown) [BK1137]
inhibition of GOAT activity (qualitative) (mouse GOAT): essentially inactive

Compound: CCCCCCCC(C)(O)/C=C/[C@H](NC(=O)C(C)(C)CO)C(=O)N[C@@H](Cc1ccccc1)C(=O)N[C@@H](CC(C)C)C(N)=O (stereo partly shown) [BK1141]
inhibition of GOAT activity (qualitative) (mouse GOAT): retains some activity

Compound: CCCCCCCC(C)(O)/C=C/[C@@H](NC(=O)OCc1ccccc1)C(=O)OC (stereo partly shown) [BK1149]
GOAT inhibitory activity/potency compared with BK1114 (mouse GOAT): comparable to BK1114

Compound: CCCCCCCC(O)(/C=C/[C@H](NC(=O)OCc1ccccc1)C(=O)OC)CCC (stereo partly shown) [BK1165]
GOAT inhibitory activity/potency compared with BK1114 (mouse GOAT): without compromising activity

Compound: CCCCCCCC(O)CC[C@@H](CO)NC(=O)[C@H](C)NC(=O)CNC (stereo partly shown) [PH1167]
GOAT inhibitory activity compared with PH1147 (mouse GOAT): neither PH1159 nor PH1167 possessed activity comparable to PH1147

Compound: CCCCCCCC(=O)NC[C@H](NC(=O)[C@H](CO)NC(=O)CN)C(=O)N[C@@H](Cc1ccccc1)C(=O)N[C@@H](CC(C)C)C(N)=O [Structure 2, [Dap^3]octanoyl-ghrelin (1-5)-NH2, reference compound] (H-GS[Dap](Octanoyl)FL-NH2)
IC50 (mouse GOAT): ~1.5 µM | dose response inhibition of GOAT activity in vitro (mouse GOAT): dose response inhibition
